Measurements: patent publication US12612412B2, “Antiviral heterocyclic compounds” (Enanta Pharmaceuticals, Inc., priority 2021, dated 2026)
Like-named read-outs stand apart in the source and are kept apart here.

Experiments:
[1] = system: HMPV clinical isolate TN/1501/A1; experiment: HMPV antiviral assay Method-B (clinical isolate TN/1501/A1 in LLC-MK2 cells, ATP-Lite readout); format: cell-based, Human metapneumovirus (HMPV); details: human metapneumovirus, LLC-MK2, 144 h, hMPV WT1501 (clinical isolate TN/1501/A1), 6 days
How it was run: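 EC50 derived by four-parameter logistic fit of percent cell health, measured by ATP-Lite luminescence and normalised to virus-only and uninfected-cell controls. Compounds run in duplicate from 10 μM top, 3-fold, 10 points. Infection: LLC-MK2 cells, MOI 0.014, 2 μg/mL final TPCK-trypsin, serum-free, 6 days at 37° C.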

[2] = system: genotype A, "Long" strain RSV; experiment: RSV-A assay (CPE protection in Hep-2 cells, ATPlite readout); format: cell-based, Human respiratory syncytial virus (HRSV); details: human respiratory syncytial virus, MOI 0.1, CPE protection
How it was run: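 Hep-2 cells (8,000/well) were treated with 2-fold serial compound dilutions in duplicate and infected with RSV at MOI 0.1. After 5 days, protection from cytopathic effect was measured as cell viability by ATPlite luminescence, and EC50 values were derived.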

[3] = genotype A “Long” strain RSV, read-out: Human RSV-A (“Long”)
[4] = RSV-A Long strain, read-out: Human RSV-A (“Long”) EC50

SMILES | EC50 [1] [µM] | EC50 [2, 3] [µM] | EC50 [2, 4] [µM]
COc1cc(C(=O)NC[C@](O)(c2cc3c(c(-c4ccc(F)c(Br)c4F)n2)OC[C@]3(C)C(N)=O)C2CC2)cc2cn(C3(F)CC3)nc12 [Example 802] | < 0.5 | < 0.2 | 
COc1cc(C(=O)NC[C@](O)(c2cc3c(c(-c4ccc(F)c(Cl)c4)n2)OC[C@]3(C)C(N)=O)C2CC2)ccc1OC1CC1 [Example 811] | < 0.5 | < 0.2 | 
C[C@]1(C(N)=O)COc2c1cc([C@@](O)(CNC(=O)c1ccc3nn(C4CC4)cc3c1)C1CC1)nc2-c1ccc(F)c(Cl)c1 [Example 815] | < 0.5 | < 0.2 | 
COc1cc(C(=O)NC[C@](O)(c2cc3c(c(-c4ccc5c(c4)OC(F)(F)O5)n2)OC[C@]3(C)C(N)=O)C2CC2)cc2cn(C3CC3)nc12 [Example 816] | < 0.5 | < 0.2 | 
COc1cc(C(=O)NC[C@](O)(c2cc3c(c(-c4ccc5c(c4)OC(F)(F)O5)n2)OC[C@]3(C)C(N)=O)C(F)(F)F)ccc1OC1CC1 [Example 817] | < 0.5 | < 0.2 | 
C[C@@H](O)COc1ccc(C(=O)NC[C@](O)(c2cc3c(c(-c4ccc5c(c4)OC(F)(F)O5)n2)OC[C@]3(C)C(N)=O)C(F)(F)F)cc1OC1CC1 [Example 818] | < 0.5 | < 0.2 | 
C[C@]1(C(N)=O)COc2c1cc([C@@](O)(CNC(=O)c1ccc3nn(C4CC4)cc3c1)C(F)(F)F)nc2-c1ccc2c(c1)OC(F)(F)O2 [Example 819] | < 0.5 | < 0.2 | 
COc1cc(C(=O)NC[C@](O)(c2cc3c(c(-c4ccc(F)cc4)n2)OC[C@]3(C)C(N)=O)C(F)(F)F)cc2cn(C3(F)CC3)nc12 [Example 820] | < 0.5 | < 0.2 | 
COc1cc(C(=O)NC[C@](O)(c2cc3c(c(-c4ccc(F)cc4)n2)OC[C@]3(C)C(N)=O)C(F)(F)F)cc2cn(C3(O)CC3)nc12 [Example 821] | > 0.5 | < 0.2 | 
C[C@]1(C(N)=O)COc2c1cc([C@@](O)(CNC(=O)c1cc(OC3CC3)n3nc(C4CC4)cc3c1)C1CC1)nc2-c1ccc2c(c1)OC(F)(F)O2 [Example 822] | < 0.5 | < 0.2 | 
COc1cc(C(=O)NC[C@](O)(c2cc3c(c(-c4ccc5c(c4)OC(F)(F)O5)n2)OC[C@]3(C)C(N)=O)C2CC2)cc2cn(C(F)F)nc12 [Example 823] | < 0.5 | < 0.2 | 
C[C@]1(C(N)=O)COc2c1cc([C@@](O)(CNC(=O)c1ccn3nc(C4CC4)cc3c1)C1CC1)nc2-c1ccc2c(c1)OC(F)(F)O2 [Example 824] | < 0.5 | < 0.2 | 
COc1cc(C(=O)NC[C@](O)(c2cc3c(c(-c4ccc5c(c4)OC(F)(F)O5)n2)OC[C@]3(C)C(N)=O)C2CC2)cc2cc(Cl)c(C)nc12 [Example 825] | < 0.5 | < 0.2 | 
COc1cc(C(=O)NC[C@](O)(c2cc3c(c(-c4ccc5c(c4)OC(F)(F)O5)n2)OC[C@]3(C)C(N)=O)C2CC2)cc2cc(C3CC3)nn12 [Example 826] | < 0.5 | < 0.2 | 
C[C@]1(C(N)=O)COc2c1cc([C@@](O)(CNC(=O)c1cc(F)c3nc(N)sc3c1)C1CC1)nc2-c1ccc2c(c1)OC(F)(F)O2 [Example 827] | < 0.5 |  | < 0.2
COc1cc(C(=O)NC[C@](O)(c2cc3c(c(-c4ccc5c(c4)OC(F)(F)O5)n2)OC[C@]3(C)C(N)=O)C2CC2)cn2cc(C3CC3)nc12 [Example 828] | < 0.5 |  | < 0.2
C[C@@H](O)COc1ccc(C(=O)NC[C@](O)(c2cc3c(c(-c4ccc5c(c4)OC(F)(F)O5)n2)OC[C@]3(C)C(N)=O)C2CC2)cc1OC1CC1 [Example 829] | > 0.5 |  | < 0.2
COc1cc(C(=O)NC[C@](O)(c2cc3c(c(-c4ccc5c(c4)OC(F)(F)O5)n2)OC[C@]3(C)C(N)=O)C2CC2)ccc1OC1CC1 [Example 830] | < 0.5 |  | < 0.2

SMILES | EC50 [1] [µM] | EC50 [2, 3] [µM] | EC50 [2, 4] [µM]
C[C@]1(C(N)=O)COc2c1cc([C@@](O)(CNC(=O)c1ccc3nn(C4CC4)cc3c1)C1CC1)nc2-c1ccc2c(c1)OC(F)(F)O2 [Example 831] | < 0.5 |  | < 0.2
C[C@]1(C(N)=O)COc2c1cc([C@@](O)(CNC(=O)c1ccc3nn(C4(F)CC4)cc3c1)C(F)(F)F)nc2-c1ccc(F)cc1 [Example 832] | > 0.5 |  | < 0.2
C[C@]1(C(N)=O)COc2c1cc([C@@](O)(CNC(=O)c1cc(F)c3nn(C4(F)CC4)cc3c1)C(F)(F)F)nc2-c1ccc(F)cc1 [Example 833] | > 0.5 |  | < 0.2
C[C@]1(C(N)=O)COc2c1cc([C@@](O)(CNC(=O)c1cc(Cl)c3nn(C4(F)CC4)cc3c1)C(F)(F)F)nc2-c1ccc(F)cc1 [Example 834] | < 0.5 |  | < 0.2
COc1cc(C(=O)NC[C@](O)(c2cc3c(c(-c4ccc5c(c4)OC(F)(F)O5)n2)OC[C@]3(C)C(N)=O)C2CC2)cc2cn(C3(F)CC3)nc12 [Example 835] | < 0.5 |  | < 0.2
COc1cc(C(=O)NC[C@](O)(c2cc3c(c(-c4ccc(F)c(Cl)c4)n2)OC[C@]3(C)C(N)=O)C2CC2)cc2cn(C3(F)CC3)nc12 [Example 836] | < 0.5 |  | < 0.2
COc1cc(C(=O)NC[C@](O)(c2cc3c(c(-c4ccc5c(c4)OC(F)(F)O5)n2)OC[C@]3(C)C(N)=O)C(F)(F)F)cc2cn(C3(F)CC3)nc12 [Example 837] | < 0.5 |  | < 0.2
COc1cc(C(=O)NC[C@](O)(c2cc3c(c(-c4ccc5c(c4)OC(F)(F)O5)n2)OC[C@]3(C)C(N)=O)C2CC2)cc2cn(C3(Cl)CC3)nc12 [Example 838] | < 0.5 |  | < 0.2
COc1cc(C(=O)NC[C@](O)(c2cc3c(c(-c4cc(Cl)ccc4F)n2)OC[C@]3(C)C(N)=O)C2CC2)cc2cn(C3(F)CC3)nc12 [Example 839] | < 0.5 |  | < 0.2
COc1cc(C(=O)NC[C@](O)(c2cc3c(c(-c4ccc(Cl)cc4F)n2)OC[C@]3(C)C(N)=O)C2CC2)cc2cn(C3(F)CC3)nc12 [Example 840] | < 0.5 |  | < 0.2
COc1cc(C(=O)NC[C@](O)(c2cc3c(c(-c4ccc(F)c(Cl)c4)n2)OC[C@]3(C)C(N)=O)C2CC2)cc2cn(C3(Cl)CC3)nc12 [Example 841] | < 0.5 |  | < 0.2
COc1cc(C(=O)NC[C@](O)(c2cc3c(c(-c4cc(Cl)ccc4F)n2)OC[C@]3(C)C(N)=O)C2CC2)cc2cn(C3(Cl)CC3)nc12 [Example 842] | < 0.5 |  | < 0.2
COc1cc(C(=O)NC[C@](O)(c2cc3c(c(-c4ccc(Cl)cc4F)n2)OC[C@]3(C)C(N)=O)C2CC2)cc2cn(C3(Cl)CC3)nc12 [Example 843] | < 0.5 |  | < 0.2
COc1cc(C(=O)NC[C@](O)(c2cc3c(c(-c4ccc(F)cc4Cl)n2)OC[C@]3(C)C(N)=O)C2CC2)cc2cn(C3(Cl)CC3)nc12 [Example 844] | < 0.5 |  | < 0.2
COc1cc(C(=O)NC[C@](O)(c2cc3c(c(-c4ccc(F)c(C(F)(F)F)c4)n2)OC[C@]3(C)C(N)=O)C2CC2)cc2cn(C3(Cl)CC3)nc12 [Example 845] | < 0.5 |  | < 0.2
C[C@]1(C(N)=O)COc2c1cc([C@@](O)(CNC(=O)c1cc(OC3CC3)c3nn(C4(F)CC4)cc3c1)C1CC1)nc2-c1ccc2c(c1)OC(F)(F)O2 [Example 846] | < 0.5 |  | < 0.2
C[C@]1(C(N)=O)COc2c1cc([C@@](O)(CNC(=O)c1cc(OC3CC3)c3nn(C(F)F)cc3c1)C1CC1)nc2-c1ccc2c(c1)OC(F)(F)O2 [Example 847] | < 0.5 |  | < 0.2
